According to patent publication US8933230B2, “Phosphorus-containing group-substituted quinoline, its preparation process, medical composition containing the compounds and application” (priority 2011, dated 2015):

Experiments:
Assay in all cases: KinomeScan kinase panel
Assay type in all cases: binding
AAK1 = target: T1, AAK1 (Homo sapiens, UniProt Q2M2I8)
T1 construct: purchased DiscoveRx Corporation (KinomeScan)
Method: (§1) In this example, the compound prepared in Example 10, N1-[4-[[7-[[1-(diethoxyphosphorylmethyl)-4-piperidinyl]methoxyl]-6-methoxyl-4-quinolyl]oxyl]-3-fluorophenyl]-N1′-(4-fluorophenyl)cyclopropane-1,1-dicarboxamide is tested for the inhibitory effect in the 442-kinase panel of KinomeScan™ (www.kinomescan.com) from DiscoveRx Corporation (4215 Sorrento Valley Blvd, San Diego, Calif. 92121) at 1000 nM of the compound concentration, the results are shown in the following Table 5:
(§2) For the detailed information of the screening technique, see Fabian, M. A. et al, Nat., Biotechnol. 2005, 23, 329 and Karaman, M. W. et al, Nat., Biotechnol. 2008, 26, 127. It can be seen from the following representative results that, the compound according to the present invention has significant inhibitory effect on kinases including c-Met, KDR or VEGFR2, RET, PDGFR-β, c-KIT, Flt3, MEK5, DDR1, LOK, CSF1R, EPHA7, EPHA8, EPHB6, MKNK2, BLK, HIPK4, HCK, Flt4 and the mutants thereof

ABL1-phosphorylated = target: T2, ABL1-phosphorylated (Homo sapiens, UniProt P00519)
T2 construct: purchased DiscoveRx Corporation (KinomeScan)
Method: as §1, §2

AKT3 = target: T3, AKT3 (Homo sapiens, UniProt Q9Y243)
T3 construct: purchased DiscoveRx Corporation (KinomeScan)
Method: as §1, §2

CAMK1G = target: T4, CAMK1G (Homo sapiens, UniProt Q96NX5)
T4 construct: purchased DiscoveRx Corporation (KinomeScan)
Method: as §1, §2

CDK8 = target: T5, CDK8 (Homo sapiens, UniProt P49336)
T5 construct: purchased DiscoveRx Corporation (KinomeScan)
Method: as §1, §2

CDKL2 = target: T6, CDKL2 (Homo sapiens, UniProt Q92772)
T6 construct: purchased DiscoveRx Corporation (KinomeScan)
Method: as §1, §2

CLK2 = target: T7, CLK2 (Homo sapiens, UniProt P49760)
T7 construct: purchased DiscoveRx Corporation (KinomeScan)
Method: as §1, §2

CSNK1A1L = target: T8, CSNK1A1L (Homo sapiens, UniProt Q8N752)
T8 construct: purchased DiscoveRx Corporation (KinomeScan)
Method: as §1, §2

DDR1 = target: T9, DDR1 (Homo sapiens, UniProt Q08345)
T9 construct: purchased DiscoveRx Corporation (KinomeScan)
Method: as §1, §2

DDR2 = target: T10, DDR2 (Homo sapiens, UniProt Q16832)
T10 construct: purchased DiscoveRx Corporation (KinomeScan)
Method: as §1, §2

DMPK = target: T11, DMPK (Homo sapiens, UniProt Q09013)
T11 construct: purchased DiscoveRx Corporation (KinomeScan)
Method: as §1, §2

EGFR(L747-E749del,A750P) = target: T12, EGFR(L747-E749del,A750P) (Homo sapiens, UniProt P00533, A750P/DEL747-749)
T12 construct: purchased DiscoveRx Corporation (KinomeScan)
Method: as §1, §2

FGFR4 = target: T13, FGFR4 (Homo sapiens, UniProt P22455)
T13 construct: purchased DiscoveRx Corporation (KinomeScan)
Method: as §1, §2

FLT3(K663Q) = target: T14, FLT3(K663Q) (Homo sapiens, UniProt P36888, K663Q)
T14 construct: purchased DiscoveRx Corporation (KinomeScan)
Method: as §1, §2

KIT(D816H) = target: T15, KIT(D816H) (Homo sapiens, UniProt P10721, D816H)
T15 construct: purchased DiscoveRx Corporation (KinomeScan)
Method: as §1, §2

KIT(V559D, T670I) = target: T16, KIT(V559D, T670I) (Homo sapiens, UniProt P10721, T670I/V559D)
T16 construct: purchased DiscoveRx Corporation (KinomeScan)
Method: as §1, §2

MEK2 = target: T17, MEK2 (Homo sapiens, UniProt P36507)
T17 construct: purchased DiscoveRx Corporation (KinomeScan)
Method: as §1, §2

MINK = target: T18, MINK (Homo sapiens, UniProt Q8N4C8)
T18 construct: purchased DiscoveRx Corporation (KinomeScan)
Method: as §1, §2

MKK7 = target: T19, MKK7 (Homo sapiens, UniProt O14733)
T19 construct: purchased DiscoveRx Corporation (KinomeScan)
Method: as §1, §2

MKNK1 = target: T20, MKNK1 (Homo sapiens, UniProt Q9BUB5)
T20 construct: purchased DiscoveRx Corporation (KinomeScan)
Method: as §1, §2

MRCKB = target: T21, MRCKB (Homo sapiens, UniProt Q9Y5S2)
T21 construct: purchased DiscoveRx Corporation (KinomeScan)
Method: as §1, §2

PAKC-alpha = target: T22, PAKC-alpha (Homo sapiens, UniProt P17612)
T22 construct: purchased DiscoveRx Corporation (KinomeScan)
Method: as §1, §2

PIK3CA(E542K) = target: T23, PIK3CA(E542K) (Homo sapiens, UniProt P42336, E542K)
T23 construct: purchased DiscoveRx Corporation (KinomeScan)
Method: as §1, §2

PLK1 = target: T24, PLK1 (Homo sapiens, UniProt P53350)
T24 construct: purchased DiscoveRx Corporation (KinomeScan)
Method: as §1, §2

PLK2 = target: T25, PLK2 (Homo sapiens, UniProt Q9NYY3)
T25 construct: purchased DiscoveRx Corporation (KinomeScan)
Method: as §1, §2

PRKCE = target: T26, PRKCE (Homo sapiens, UniProt Q02156)
T26 construct: purchased DiscoveRx Corporation (KinomeScan)
Method: as §1, §2

[1] = target: T27, RPS6KA4(kin.Dom.2-C-termimal) (Homo sapiens, UniProt O75676)
T27 construct: kin.Dom.2; purchased DiscoveRx Corporation
Method: as §1, §2

[2] = target: T28, RSK4(Kin.Dom.1-N-terminal) (Homo sapiens, UniProt Q9UK32)
T28 construct: Kin.Dom.1; purchased DiscoveRx Corporation (KinomeScan)
Method: as §1, §2

STK16 = target: T29, STK16 (Homo sapiens, UniProt O75716)
T29 construct: purchased DiscoveRx Corporation (KinomeScan)
Method: as §1, §2

STK35 = target: T30, STK35 (Homo sapiens, UniProt Q8TDR2)
T30 construct: purchased DiscoveRx Corporation (KinomeScan)
Method: as §1, §2

TAK1 = target: T31, TAK1 (Homo sapiens, UniProt O43318)
T31 construct: purchased DiscoveRx Corporation (KinomeScan)
Method: as §1, §2

TIE2 = target: T32, TIE2 (Homo sapiens, UniProt Q02763)
T32 construct: purchased DiscoveRx Corporation (KinomeScan)
Method: as §1, §2

TRPM6 = test system: TRPM6
Method: as §1, §2

[3] = target: T33, TYK2(JH1domain-catalytic) (Homo sapiens, UniProt P29597)
T33 construct: JH1domain; purchased DiscoveRx Corporation (KinomeScan)
Method: as §1, §2

WEE1 = target: T34, WEE1 (Homo sapiens, UniProt P30291)
T34 construct: purchased DiscoveRx Corporation (KinomeScan service)
Method: as §1, §2

T30 sequence (Q8TDR2 whole entry): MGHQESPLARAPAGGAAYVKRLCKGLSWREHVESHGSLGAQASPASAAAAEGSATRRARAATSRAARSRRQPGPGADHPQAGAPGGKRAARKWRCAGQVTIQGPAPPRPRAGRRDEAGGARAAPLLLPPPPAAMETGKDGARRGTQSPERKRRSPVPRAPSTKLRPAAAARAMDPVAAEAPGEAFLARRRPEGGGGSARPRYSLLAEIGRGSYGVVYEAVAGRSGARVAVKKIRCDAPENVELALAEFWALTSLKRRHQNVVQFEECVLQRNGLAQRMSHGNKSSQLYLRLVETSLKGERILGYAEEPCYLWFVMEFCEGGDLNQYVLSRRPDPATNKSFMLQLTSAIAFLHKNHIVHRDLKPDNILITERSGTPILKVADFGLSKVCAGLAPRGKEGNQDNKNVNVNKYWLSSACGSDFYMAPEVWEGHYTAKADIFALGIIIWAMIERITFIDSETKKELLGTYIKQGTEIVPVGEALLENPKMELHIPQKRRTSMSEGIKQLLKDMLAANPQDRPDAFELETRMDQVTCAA
T6 sequence (Q92772 whole entry): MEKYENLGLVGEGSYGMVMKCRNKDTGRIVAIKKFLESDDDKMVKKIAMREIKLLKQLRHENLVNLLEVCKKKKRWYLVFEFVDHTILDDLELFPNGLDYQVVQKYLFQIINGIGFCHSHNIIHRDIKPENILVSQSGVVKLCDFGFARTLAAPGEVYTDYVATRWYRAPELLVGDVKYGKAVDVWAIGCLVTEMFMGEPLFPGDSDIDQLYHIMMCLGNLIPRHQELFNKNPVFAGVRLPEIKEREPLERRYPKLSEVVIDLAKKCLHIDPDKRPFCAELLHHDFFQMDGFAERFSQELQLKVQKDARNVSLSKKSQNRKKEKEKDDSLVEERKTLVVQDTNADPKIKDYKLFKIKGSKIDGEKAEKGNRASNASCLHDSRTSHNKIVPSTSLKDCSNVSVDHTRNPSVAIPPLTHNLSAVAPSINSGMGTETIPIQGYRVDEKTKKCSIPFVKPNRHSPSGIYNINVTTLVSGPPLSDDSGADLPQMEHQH
T25 sequence (Q9NYY3 whole entry): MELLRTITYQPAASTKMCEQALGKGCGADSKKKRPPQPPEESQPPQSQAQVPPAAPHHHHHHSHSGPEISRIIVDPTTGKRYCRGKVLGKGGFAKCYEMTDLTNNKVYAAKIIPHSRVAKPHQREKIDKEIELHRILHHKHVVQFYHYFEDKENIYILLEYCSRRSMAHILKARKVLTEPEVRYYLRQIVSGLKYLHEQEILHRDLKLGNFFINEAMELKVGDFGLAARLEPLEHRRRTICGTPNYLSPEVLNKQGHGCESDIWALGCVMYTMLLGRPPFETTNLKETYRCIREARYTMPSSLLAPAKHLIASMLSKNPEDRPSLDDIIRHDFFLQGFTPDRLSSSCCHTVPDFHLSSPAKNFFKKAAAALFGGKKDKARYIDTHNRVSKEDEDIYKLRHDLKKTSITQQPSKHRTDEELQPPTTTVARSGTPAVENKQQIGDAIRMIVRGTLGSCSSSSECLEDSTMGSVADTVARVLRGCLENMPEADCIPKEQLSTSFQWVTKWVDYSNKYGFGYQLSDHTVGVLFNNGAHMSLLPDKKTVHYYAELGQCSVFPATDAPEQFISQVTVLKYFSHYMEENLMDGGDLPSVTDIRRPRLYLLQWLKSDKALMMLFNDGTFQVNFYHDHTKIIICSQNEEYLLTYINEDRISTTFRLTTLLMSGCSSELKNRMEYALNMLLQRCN
T8 sequence (Q8N752 whole entry): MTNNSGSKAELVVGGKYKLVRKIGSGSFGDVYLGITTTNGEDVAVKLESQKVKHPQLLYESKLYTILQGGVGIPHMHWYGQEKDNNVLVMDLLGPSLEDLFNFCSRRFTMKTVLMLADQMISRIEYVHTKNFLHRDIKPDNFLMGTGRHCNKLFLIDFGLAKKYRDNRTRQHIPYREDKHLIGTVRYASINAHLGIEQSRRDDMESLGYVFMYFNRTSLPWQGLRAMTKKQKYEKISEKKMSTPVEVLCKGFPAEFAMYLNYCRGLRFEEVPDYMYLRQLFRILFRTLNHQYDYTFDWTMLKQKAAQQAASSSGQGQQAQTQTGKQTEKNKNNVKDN
T23 sequence (P42336 whole entry E542K): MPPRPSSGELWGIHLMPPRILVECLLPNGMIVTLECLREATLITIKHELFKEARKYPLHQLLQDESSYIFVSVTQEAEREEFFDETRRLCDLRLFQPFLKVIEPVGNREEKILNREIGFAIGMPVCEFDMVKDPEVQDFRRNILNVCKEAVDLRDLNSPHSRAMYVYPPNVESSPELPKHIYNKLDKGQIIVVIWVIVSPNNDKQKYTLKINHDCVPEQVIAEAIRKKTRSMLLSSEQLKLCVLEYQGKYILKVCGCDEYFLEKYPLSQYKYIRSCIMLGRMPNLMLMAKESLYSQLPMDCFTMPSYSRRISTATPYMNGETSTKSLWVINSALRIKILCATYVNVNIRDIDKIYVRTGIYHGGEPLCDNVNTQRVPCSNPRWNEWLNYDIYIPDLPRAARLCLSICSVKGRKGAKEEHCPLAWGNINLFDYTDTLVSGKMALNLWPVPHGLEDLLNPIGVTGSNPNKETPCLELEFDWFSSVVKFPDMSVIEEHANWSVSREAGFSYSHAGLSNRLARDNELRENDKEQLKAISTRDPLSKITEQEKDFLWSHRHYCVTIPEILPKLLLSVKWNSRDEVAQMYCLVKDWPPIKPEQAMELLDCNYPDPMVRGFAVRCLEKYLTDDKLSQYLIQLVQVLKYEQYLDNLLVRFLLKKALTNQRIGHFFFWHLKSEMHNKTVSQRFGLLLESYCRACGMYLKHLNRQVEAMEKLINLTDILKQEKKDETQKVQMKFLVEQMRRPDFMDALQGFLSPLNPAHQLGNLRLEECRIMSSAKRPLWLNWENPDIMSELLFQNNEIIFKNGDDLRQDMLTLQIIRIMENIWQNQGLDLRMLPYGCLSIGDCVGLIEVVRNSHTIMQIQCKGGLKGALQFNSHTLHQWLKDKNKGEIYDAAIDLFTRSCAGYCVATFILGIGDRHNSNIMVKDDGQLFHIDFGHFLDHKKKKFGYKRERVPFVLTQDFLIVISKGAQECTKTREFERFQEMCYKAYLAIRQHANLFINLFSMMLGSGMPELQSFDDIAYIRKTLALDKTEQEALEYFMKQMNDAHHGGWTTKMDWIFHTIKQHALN
T21 sequence (Q9Y5S2 whole entry): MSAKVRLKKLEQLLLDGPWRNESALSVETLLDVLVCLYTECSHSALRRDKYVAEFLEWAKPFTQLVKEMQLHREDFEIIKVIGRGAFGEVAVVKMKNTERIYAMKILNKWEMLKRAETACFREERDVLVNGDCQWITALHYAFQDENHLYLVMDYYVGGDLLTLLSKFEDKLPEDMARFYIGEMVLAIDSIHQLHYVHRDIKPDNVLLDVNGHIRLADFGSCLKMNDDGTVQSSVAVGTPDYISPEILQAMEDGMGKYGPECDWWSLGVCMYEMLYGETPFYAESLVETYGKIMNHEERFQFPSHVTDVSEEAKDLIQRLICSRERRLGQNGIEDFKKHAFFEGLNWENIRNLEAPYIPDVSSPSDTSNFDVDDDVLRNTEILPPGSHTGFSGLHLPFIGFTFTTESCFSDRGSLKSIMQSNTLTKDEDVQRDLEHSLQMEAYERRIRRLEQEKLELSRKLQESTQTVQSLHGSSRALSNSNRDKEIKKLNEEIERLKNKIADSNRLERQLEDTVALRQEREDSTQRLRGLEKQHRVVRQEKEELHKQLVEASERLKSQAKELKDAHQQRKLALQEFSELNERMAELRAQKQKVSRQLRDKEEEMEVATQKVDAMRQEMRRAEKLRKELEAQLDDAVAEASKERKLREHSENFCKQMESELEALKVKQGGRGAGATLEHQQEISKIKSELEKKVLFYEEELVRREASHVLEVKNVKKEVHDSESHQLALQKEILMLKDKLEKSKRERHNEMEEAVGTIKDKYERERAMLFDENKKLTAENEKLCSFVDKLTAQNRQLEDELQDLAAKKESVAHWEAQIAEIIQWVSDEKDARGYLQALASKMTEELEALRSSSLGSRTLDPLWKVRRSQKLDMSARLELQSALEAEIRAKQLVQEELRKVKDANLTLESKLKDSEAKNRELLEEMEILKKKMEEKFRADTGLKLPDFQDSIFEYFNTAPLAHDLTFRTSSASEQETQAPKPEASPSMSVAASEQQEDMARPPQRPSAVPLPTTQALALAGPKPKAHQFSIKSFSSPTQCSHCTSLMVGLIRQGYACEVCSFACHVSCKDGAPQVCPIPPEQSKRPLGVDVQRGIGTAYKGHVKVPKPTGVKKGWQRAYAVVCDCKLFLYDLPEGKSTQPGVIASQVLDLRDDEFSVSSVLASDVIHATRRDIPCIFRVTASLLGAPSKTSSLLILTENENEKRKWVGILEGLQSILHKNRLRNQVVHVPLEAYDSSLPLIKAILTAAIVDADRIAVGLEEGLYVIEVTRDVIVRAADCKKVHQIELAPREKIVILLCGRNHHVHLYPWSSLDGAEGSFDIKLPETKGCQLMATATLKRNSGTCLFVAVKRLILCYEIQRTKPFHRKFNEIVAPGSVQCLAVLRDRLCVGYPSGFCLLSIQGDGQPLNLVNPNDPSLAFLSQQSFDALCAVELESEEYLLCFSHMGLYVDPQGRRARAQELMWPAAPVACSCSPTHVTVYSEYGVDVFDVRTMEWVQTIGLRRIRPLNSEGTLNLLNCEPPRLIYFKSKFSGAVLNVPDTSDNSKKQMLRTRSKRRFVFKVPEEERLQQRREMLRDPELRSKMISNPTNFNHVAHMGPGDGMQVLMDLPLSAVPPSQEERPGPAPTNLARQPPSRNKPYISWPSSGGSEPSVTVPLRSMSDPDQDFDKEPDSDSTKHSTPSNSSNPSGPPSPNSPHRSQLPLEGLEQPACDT

`CCOP(=O)(CN1CCC(COc2cc3nccc(Oc4ccc(NC(=O)C5(C(=O)Nc6ccc(F)cc6)CC5)cc4F)c3cc2OC)CC1)OCC` [Example 10, N1-[4-[[7-[[1-(diethoxyphosphorylmethyl)-4-piperidinyl]methoxyl]-6-methoxyl-4-quinolyl]oxyl]-3-fluorophenyl]-N1′-(4-fluorophenyl)cyclopropane-1,1-dicarboxamide] was tested, and the “% Ctrl@1000 nM” value (AAK1) was 91 % Ctrl, the “% Ctrl@1000 nM” value (ABL1-phosphorylated) was 33 % Ctrl and the “% Ctrl@1000 nM” value (AKT3) was 100 % Ctrl. For the same compound, the “% Ctrl@1000 nM” value (CAMK1G) was 88 % Ctrl, the “% Ctrl@1000 nM” value (CDK8) was 76 % Ctrl and the “% Ctrl@1000 nM” value (CDKL2) was 100 % Ctrl. For the same compound, the “% Ctrl@1000 nM” value (CLK2) was 78 % Ctrl, the “% Ctrl@1000 nM” value (CSNK1A1L) was 100 % Ctrl and the “% Ctrl@1000 nM” value (DDR1) was 0 % Ctrl. The “% Ctrl@1000 nM” value (DDR2) was 7.8 % Ctrl, the “% Ctrl@1000 nM” value (DMPK) was 85 % Ctrl and the “% Ctrl@1000 nM” value (EGFR(L747-E749del,A750P)) was 67 % Ctrl. The “% Ctrl@1000 nM” value (FGFR4) was 100 % Ctrl, the “% Ctrl@1000 nM” value (FLT3(K663Q)) was 0.55 % Ctrl and the “% Ctrl@1000 nM” value (KIT(D816H)) was 63 % Ctrl. The “% Ctrl@1000 nM” value (KIT(V559D, T670I)) was 1.4 % Ctrl, the “% Ctrl@1000 nM” value (MEK2) was 33 % Ctrl and the “% Ctrl@1000 nM” value (MINK) was 100 % Ctrl. For the same compound, the “% Ctrl@1000 nM” value (MKK7) was 100 % Ctrl, the “% Ctrl@1000 nM” value (MKNK1) was 45 % Ctrl and the “% Ctrl@1000 nM” value (MRCKB) was 100 % Ctrl. For the same compound, the “% Ctrl@1000 nM” value (PAKC-alpha) was 100 % Ctrl, the “% Ctrl@1000 nM” value (PIK3CA(E542K)) was 100 % Ctrl and the “% Ctrl@1000 nM” value (PLK1) was 100 % Ctrl. For the same compound, the “% Ctrl@1000 nM” value (PLK2) was 83 % Ctrl, the “% Ctrl@1000 nM” value (PRKCE) was 100 % Ctrl and the “% Ctrl@1000 nM” value [1] was 100 % Ctrl. The “% Ctrl@1000 nM” value [2] was 77 % Ctrl, the “% Ctrl@1000 nM” value (STK16) was 77 % Ctrl and the “% Ctrl@1000 nM” value (STK35) was 82 % Ctrl. The “% Ctrl@1000 nM” value (TAK1) was 75 % Ctrl, the “% Ctrl@1000 nM” value (TIE2) was 2.4 % Ctrl and the “% Ctrl@1000 nM” value (TRPM6) was 86 % Ctrl. For the same compound, the “% Ctrl@1000 nM” value [3] was 92 % Ctrl and the “% Ctrl@1000 nM” value (WEE1) was 100 % Ctrl.
